Laboratory results: the supplement of paper PMC10307832

Legend:
Assay in all cases: relative viability (nuclei count vs DMSO), 5 days (fraction); higher = more cells survive
Erlotinib + Lapatinib = compound: C#Cc1cccc(Nc2ncnc3cc(OCCOC)c(OCCOC)cc23)c1 [Erlotinib] + CS(=O)(=O)CCNCc1ccc(-c2ccc3ncnc(Nc4ccc(OCc5cccc(F)c5)c(Cl)c4)c3c2)o1 [Lapatinib] (partner 2 µM)
Method in brief: (§1)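 One day after seeding in 1536-well plates, lung cancer cell lines were dosed by pin tool. Dosing was either single-drug or a fixed anchor-drug dose plus five library-drug doses (not always all listed) in √10 steps. After 5 days, nuclei were stained in one fix-and-stain step and counted on 4× images, and relative viability is the nuclei count of treated wells over that of vehicle wells, given as the median of duplicate plates.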

AT9283 + Trametinib = compound: O=C(Nc1c[nH]nc1-c1nc2ccc(CN3CCOCC3)cc2[nH]1)NC1CC1 [AT9283] + CC(=O)Nc1cccc(-n2c(=O)n(C3CC3)c(=O)c3c(Nc4ccc(I)cc4F)n(C)c(=O)c(C)c32)c1 [Trametinib] (partner 0.02 µM)
Method in brief: as §1

AT9283 + Foretinib = compound: O=C(Nc1c[nH]nc1-c1nc2ccc(CN3CCOCC3)cc2[nH]1)NC1CC1 [AT9283] + COc1cc2c(Oc3ccc(NC(=O)C4(C(=O)Nc5ccc(F)cc5)CC4)cc3F)ccnc2cc1OCCCN1CCOCC1 [Foretinib] (partner 0.25 µM)
Method in brief: as §1

AT9283 + Tozasertib = compound: O=C(Nc1c[nH]nc1-c1nc2ccc(CN3CCOCC3)cc2[nH]1)NC1CC1 [AT9283] + Cc1cc(Nc2cc(N3CCN(C)CC3)nc(Sc3ccc(NC(=O)C4CC4)cc3)n2)n[nH]1 [Tozasertib] (partner 0.1 µM)
Method in brief: as §1

AT9283 + Pemetrexed = compound: O=C(Nc1c[nH]nc1-c1nc2ccc(CN3CCOCC3)cc2[nH]1)NC1CC1 [AT9283] + Nc1nc2[nH]cc(CCc3ccc(C(=O)N[C@@H](CCC(=O)O)C(=O)O)cc3)c2c(=O)[nH]1 [Pemetrexed] (partner 0.2 µM)
Method in brief: as §1

Cell Line | relative viability (Erlotinib + Lapatinib; first compound 0.02 µM) | relative viability (Erlotinib + Lapatinib; first compound 0.2 µM) | relative viability (Erlotinib + Lapatinib; first compound 0.6325 µM) | relative viability (Erlotinib + Lapatinib; first compound 2 µM) | relative viability (AT9283 + Trametinib; first compound 0.003 µM) | relative viability (AT9283 + Trametinib; first compound 0.03 µM) | relative viability (AT9283 + Trametinib; first compound 0.09487 µM) | relative viability (AT9283 + Trametinib; first compound 0.3 µM) | relative viability (AT9283 + Foretinib; first compound 0.003 µM) | relative viability (AT9283 + Foretinib; first compound 0.03 µM) | relative viability (AT9283 + Foretinib; first compound 0.09487 µM) | relative viability (AT9283 + Foretinib; first compound 0.3 µM) | relative viability (AT9283 + Tozasertib; first compound 0.003 µM) | relative viability (AT9283 + Tozasertib; first compound 0.03 µM) | relative viability (AT9283 + Tozasertib; first compound 0.09487 µM) | relative viability (AT9283 + Tozasertib; first compound 0.3 µM) | relative viability (AT9283 + Pemetrexed; first compound 0.003 µM) | relative viability (AT9283 + Pemetrexed; first compound 0.03 µM) | relative viability (AT9283 + Pemetrexed; first compound 0.09487 µM) | relative viability (AT9283 + Pemetrexed; first compound 0.3 µM)
201T | 1.01 | 1.03 | 1.08 | 0.934 | 0.734 | 0.753 | 0.388 | 0.338 | 1.12 | 1.07 | 0.274 | 0.247 | 0.871 | 0.6 | 0.35 | 0.302 | 0.292 | 0.297 | 0.279 | 0.306
A549 | 0.957 | 0.979 | 1.06 | 0.94 |  |  |  |  | 0.87 | 0.118 | 0.131 | 0.0419 |  |  |  |  |  |  |  | 
A-427 | 1.04 | 1.02 | 1.12 | 0.94 | 0.706 | 0.501 | 0.334 | 0.396 | 1.01 | 1.04 | 0.24 | 0.216 | 0.186 | 0.179 | 0.168 | 0.161 | 0.979 | 0.767 | 0.272 | 0.299
ABC-1 | 1.26 | 1.25 | 1.3 | 0.971 |  |  |  |  | 1.02 | 0.15 | 0.178 | 0.153 | 0.198 | 0.17 | 0.172 | 0.183 |  |  |  | 
BEN | 0.689 | 0.802 | 1.03 | 0.735 | 0.838 | 1.17 | 0.568 | 0.368 | 0.47 | 0.65 | 0.185 | 0.19 | 0.598 | 0.503 | 0.387 | 0.376 | 0.622 | 0.692 | 0.361 | 0.365
CAL-12T | 0.815 | 0.704 | 0.68 | 0.543 | 0.421 | 0.399 | 0.211 | 0.152 | 1.1 | 0.773 | 0.414 | 0.283 | 0.31 | 0.29 | 0.212 | 0.215 | 1.36 | 1.03 | 0.572 | 0.31
COR-L23 | 0.944 | 0.979 | 1.16 | 0.96 | 0.668 | 0.245 | 0.166 | 0.161 | 1.01 | 0.623 | 0.216 | 0.182 | 0.278 | 0.135 | 0.112 | 0.132 | 0.213 | 0.165 | 0.137 | 0.137
COR-L 105 | 0.368 | 0.322 | 0.335 | 0.36 | 0.399 | 0.395 | 0.328 | 0.297 | 0.847 | 0.673 | 0.249 | 0.361 | 0.384 | 0.318 | 0.283 | 0.288 | 1.08 | 0.699 | 0.341 | 0.422
Calu-6 | 1.12 |  | 1.1 | 0.979 |  |  |  |  | 0.728 | 0.203 | 0.214 | 0.24 |  |  |  |  |  |  |  | 
